Results taken from patent US8063204B2, “Benzothiazole and benzoxazole linked pyrrolo[2,1-c] [1, 4] benzodiazepine hybrids as novel antitumour agents and process for the preparation thereof” (Council of Scientific & Industrial Research, priority 2007, dated 2011).

Key:
Prostate = test: NCI in vitro anticancer screen, SRB assay, prostate panel; format: cell-based, human; conditions: average of six to nine cell lines, 48 h; for GI50: Homo sapiens, read-out: Log10 GI50 (converted)
Procedure: (§1) Anticancer activity: In vitro biological activity studies were carried out at the National Cancer Institute (USA).
(§2) The compounds were evaluated for in vitro anticancer activity against sixty human tumour cells derived from nine cancer types (leukemia, non-small-cell lung, colon, CNS, melanoma, ovarian, prostate, and breast cancer) as shown in Table 3. For each compound, dose response curves for each cell line were measured at a minimum of five concentrations at 10 fold dilutions. A protocol of 48 h continuous drug exposure was used and a sulforhodamine B (SRB) protein assay was used to estimate cell viability or growth. The concentration causing 50% cell growth inhibition (GI50), total cell growth inhibition (TGI 0% growth) and 50% cell death (LC50, −50% growth) compared with the control was calculated.

[1] = system: duplex-form calf thymus DNA (CT-DNA); test: Thermal denaturation studies with calf thymus DNA (DNA binding affinity); conditions: [PBD]:[DNA] molar ratio 1:5, CT-DNA 100 μM, ligand 20 μM, sodium phosphate buffer pH 7.00; for ΔTm after incubation at 37° C. for 0 h: 0 h incubation; for ΔTm after incubation at 37° C. for 18 h: 18 h incubation
Procedure: Compounds have been subjected to thermal denaturation studies with duplex-form calf thymus DNA (CT-DNA) using an modification of a reported procedure (Newman, M. S. Carcinog-compr. Surv. 1976, 1, 203; (b) Hecht, S. S.; Loy, M.; Hoffman, Carcinog-compr. Surv. 1976, 1, 325). Working solutions in aqueous buffer (10 mM NaH2PO4/Na2HPO4, 1 mM Na2EDTA, pH 7.00+0.01) containing CT-DNA (100 μm in phosphate) and the PBD (20 μm) have been prepared by addition of concentrated PBD solutions in DMSO to obtain a fixed [PBD]/[DNA] molar ratio of 1:5. The DNA-PBD solutions have been incubated at 37° C. for 0 and 18 h prior to analysis. Samples have been monitored at 260 nm using a Beckman DU-800 spectrophotometer fitted with high performance temperature controller, and heated at 1° C. min^−1 in the 40-110° C. range. DNA helix→coil transition temperatures (Tm) have been obtained from the maxima in the d(A260)/dT derivative plots. Drug-induced alterations in DNA melting behavior are given by: ΔTm=Tm(DNA+PBD)−Tm(DNA alone), where the Tm value for the PBD-free CT-DNA is 69.1±0.01.
The DNA binding activity for these novel C8-linked benzothiazole, benzoxazole-PBD hybrids has been examined by thermal denaturation studies using calf thymus (CT) DNA. […] The data for the compounds 9a-h is included in Table 1 for comparison.

[2] = system: sixty human tumour cells derived from nine cancer types; test: cells; format: cell-based; conditions: for Log10GI50 mean graph midpoint (MG_MID) / Log10LC50 mean graph midpoint (MG_MID) / Log10TGI mean graph midpoint (MG_MID): 48 h continuous drug exposure, SRB, mean over human tumour cell lines; for log10 GI50 anticancer activity, range over nine cancer cell types: range across nine cancer cell type
Procedure: as §1, §2

Non-small-cell-lung = test: NCI in vitro anticancer screen, SRB assay, non-small-cell lung panel; format: cell-based, human; conditions: average of six to nine cell lines, 48 h; for GI50: Homo sapiens, read-out: Log10 GI50 (converted)
Procedure: as §1, §2

Renal = test: NCI in vitro anticancer screen, SRB assay, renal panel; format: cell-based, human; conditions: average of six to nine cell lines, 48 h; for GI50: Homo sapiens, read-out: Log10 GI50 (converted)
Procedure: as §1, §2

Breast = test: NCI in vitro anticancer screen, SRB assay, breast panel; format: cell-based, human; conditions: average of six to nine cell lines, 48 h; for GI50: Homo sapiens, read-out: Log10 GI50 (converted)
Procedure: as §1, §2

Ovarian = test: NCI in vitro anticancer screen, SRB assay, ovarian panel; format: cell-based, human; conditions: average of six to nine cell lines, 48 h; for GI50: Homo sapiens, read-out: Log10 GI50 (converted)
Procedure: as §1, §2

CNS = test: NCI in vitro anticancer screen, SRB assay, CNS panel; format: cell-based, human; conditions: average of six to nine cell lines, 48 h; for GI50: Homo sapiens, read-out: Log10 GI50 (converted)
Procedure: as §1, §2

Melanoma = test: NCI in vitro anticancer screen, SRB assay, melanoma panel; format: cell-based, human; conditions: average of six to nine cell lines, 48 h; for GI50: Homo sapiens, read-out: Log10 GI50 (converted)
Procedure: as §1, §2

Colon = test: NCI in vitro anticancer screen, SRB assay, colon panel; format: cell-based, human; conditions: average of six to nine cell lines, 48 h; for GI50: Homo sapiens, read-out: Log10 GI50 (converted)
Procedure: as §1, §2

Leukemia = test: NCI in vitro anticancer screen, SRB assay, leukemia panel; format: cell-based, human; conditions: average of six to nine cell lines, 48 h; for GI50: Homo sapiens, read-out: Log10 GI50 (converted)
Procedure: as §1, §2

[3] = against nine human tumor cell lines

## COc1cc2c(cc1OCCCCCOc1ccc(-c3nc4ccccc4s3)cc1)N=C[C@@H]1CCCN1C2=O [Compound 9c, 7-Methoxy-8-{5-[4-(1,3-benzothiazol-2-yl)phenoxy]pentyl}oxy-(11aS)-1,2,3,11a-tetrahydro-5H-pyrrolo[2,1-c][1,4]benzodiazepin-5-one]
Prostate
  GI50: 288 nM
[1]
  ΔTm after incubation at 37° C. for 0 h: 4.1 °C
  ΔTm after incubation at 37° C. for 18 h: 4.3 °C
[2]
  Log10GI50 mean graph midpoint (MG_MID): −6.15
  Log10LC50 mean graph midpoint (MG_MID): −4.35
  Log10TGI mean graph midpoint (MG_MID): −5.30
  log10 GI50 anticancer activity, range over nine cancer cell types: −5.87 to −6.65 mole/lit
Non-small-cell-lung
  GI50: 851 nM
Renal
  GI50: 794 nM
Breast
  GI50: 525 nM
Ovarian
  GI50: 1350 nM
CNS
  GI50: 1120 nM
Melanoma
  GI50: 692 nM
Colon
  GI50: 676 nM
Leukemia
  GI50: 224 nM

## COc1cc2c(cc1OCCCCCOc1ccc(-c3nc4ccccc4o3)cc1)N=C[C@@H]1CCCN1C2=O [Compound 9e, 7-Methoxy-8-{5-[4-(1,3-benzoxazol-2-yl)phenoxy]pentyl}oxy-(11aS) 1,2,3,11a-tetra-hydro-5H-pyrrolo[2,1-c][1,4]benzodiazepin-5-one]
[1]
  ΔTm after incubation at 37° C. for 0 h: 0.5 °C
  ΔTm after incubation at 37° C. for 18 h: 0.5 °C

## COc1cc2c(cc1OCCCCCC(=O)Nc1ccc(-c3nc4ccc(F)cc4s3)cc1)N=C[C@@H]1CCCN1C2=O [Compound 9h, 7-Methoxy-8-{5-[N^1-(4-(6-fluoro-1,3-benzothiazol-2-yl)phenyl)]pentanecarboxamide}oxy-(11aS)-1,2,3,11a-tetra-hydro-5H-pyrrolo[2,1-c][1,4]benzodiazepin-5-one]
[1]
  ΔTm after incubation at 37° C. for 0 h: 4.2 °C
  ΔTm after incubation at 37° C. for 18 h: 2.3 °C

## COc1cc2c(cc1O)N=CC1CCCN1C2=O (stereo not shown) [DC-81, reference compound]
[1]
  ΔTm after incubation at 37° C. for 0 h: 0.3 °C
  ΔTm after incubation at 37° C. for 18 h: 0.7 °C

## COc1cc(-c2nc3ccccc3s2)ccc1OCCCCCOc1cc2c(cc1OC)C(=O)N1CCC[C@H]1C=N2 [Compound 9d, 7-Methoxy-8-{5-[4-(1,3-benzothiazol-2-yl)-2-methoxyphenoxy]pentyl}oxy-(11aS)-1,2,3,11a-tetrahydro-5H-pyrrolo[2,1-c][1,4]benzodiazepin-5-one]
Prostate
  GI50: 33.9 nM
[1]
  ΔTm after incubation at 37° C. for 0 h: 6.2 °C
  ΔTm after incubation at 37° C. for 18 h: 6.3 °C
[2]
  Log10GI50 mean graph midpoint (MG_MID): −7.09
  Log10LC50 mean graph midpoint (MG_MID): −4.37
  Log10TGI mean graph midpoint (MG_MID): −5.78
  log10 GI50 anticancer activity, range over nine cancer cell types: −6.79 to −7.51 mole/lit
Non-small-cell-lung
  GI50: 95.5 nM
Renal
  GI50: 110 nM
Breast
  GI50: 56.2 nM
Ovarian
  GI50: 162 nM
CNS
  GI50: 100 nM
Melanoma
  GI50: 83.2 nM
Colon
  GI50: 83.2 nM
Leukemia
  GI50: 30.9 nM

## COc1cc(-c2nc3ccccc3s2)ccc1OCCCCOc1cc2c(cc1OC)C(=O)N1CCC[C@H]1C=N2 [Compound 9b, 7-Methoxy-8-{4-[4-(1,3-benzothiazol-2-yl)-2-methoxyphenoxy]butyl}oxy-(11aS)-1,2,3,11a-tetrahydro-5H-pyrrolo[2,1-c][1,4]benzodiazepin-5-one]
Prostate
  GI50: 355 nM
[1]
  ΔTm after incubation at 37° C. for 0 h: 0.5 °C
  ΔTm after incubation at 37° C. for 18 h: 0.5 °C
[2]
  Log10GI50 mean graph midpoint (MG_MID): −6.07
  Log10LC50 mean graph midpoint (MG_MID): −4.67
  Log10TGI mean graph midpoint (MG_MID): −5.47
  log10 GI50 anticancer activity, range over nine cancer cell types: −5.85 to −6.45 mole/lit
Non-small-cell-lung
  GI50: 1230 nM
Renal
  GI50: 851 nM
Breast
  GI50: 646 nM
Ovarian
  GI50: 1410 nM
CNS
  GI50: 1020 nM
Melanoma
  GI50: 1170 nM
Colon
  GI50: 759 nM
Leukemia
  GI50: 398 nM

## COc1cc2c(cc1OCCCCCC(=O)Nc1ccc(-c3nc4ccccc4s3)cc1)N=C[C@@H]1CCCN1C2=O [Compound 9g, 7-Methoxy-8-{5-[N^1-(4-(1,3-benzothiazol-2-yl)phenyl)]pentanecarboxamide}oxy-(11aS)-1,2,3,11a-tetra-hydro-5H-pyrrolo[2,1-c][1,4]benzodiazepin-5-one]
[1]
  ΔTm after incubation at 37° C. for 0 h: 4.1 °C
  ΔTm after incubation at 37° C. for 18 h: 4.3 °C

## COc1cc(-c2nc3ccccc3o2)ccc1OCCCCCOc1cc2c(cc1OC)C(=O)N1CCC[C@H]1C=N2 [Compound 9f, 7-Methoxy-8-{5-[4-(1,3-benzoxazol-2-yl)-2-methoxyphenoxy]pentyl}oxy-(11aS) 1,2,3,11a-tetra-hydro-5H-pyrrolo[2,1-c][1,4]benzodiazepin-5-one]
[1]
  ΔTm after incubation at 37° C. for 0 h: 2.1 °C
  ΔTm after incubation at 37° C. for 18 h: 4.2 °C

## COc1cc2c(cc1OCCCCOc1ccc(-c3nc4ccccc4s3)cc1)N=C[C@@H]1CCCN1C2=O [Compound 9a, 7-Methoxy-8-{4-[4-(1,3-benzothiazol-2-yl)phenoxy]butyl}oxy-(11aS)-1,2,3,11a-tetrahydro-5H-pyrrolo[2,1-c][1,4]benzodiazepin-5-one]
Prostate
  Log10 GI50: −6.55 mol/L
[1]
  ΔTm after incubation at 37° C. for 0 h: 0.5 °C
  ΔTm after incubation at 37° C. for 18 h: 0.5 °C
[2]
  Log10GI50 mean graph midpoint (MG_MID): −6.30
  Log10LC50 mean graph midpoint (MG_MID): −4.75
  Log10TGI mean graph midpoint (MG_MID): −5.63
  log10 GI50 anticancer activity, range over nine cancer cell types: −6.08 to −6.73 mole/lit
[2]; Homo sapiens, read-out: log10 LC50 mean graph midpoint value (converted)
  LC50 (50% cell kill): 17800 nM
[2]; [3]
  log10 GI50 mean graph midpoint value: −6.30 mol/lit
  log10 TGI mean graph midpoint value: −5.63 mol/lit
Non-small-cell-lung
  Log10 GI50: −6.12 mol/L
Renal
  Log10 GI50: −6.33 mol/L
Breast
  Log10 GI50: −6.43 mol/L
Ovarian
  Log10 GI50: −6.08 mol/L
CNS
  Log10 GI50: −6.20 mol/L
Melanoma
  Log10 GI50: −6.10 mol/L
Colon
  Log10 GI50: −6.38 mol/L
Leukemia
  Log10 GI50: −6.73 mol/L
